“Also recorded” adds a separate entry of the source.
Columns and labels:
mutated KRAS oncogene = assay: Digital PCR of KRAS in plasma; type: in vivo, rat; conditions: for Mutated KRAS event no.: plasma
Protocol: (§1) The procedure was performed 2 times in the TCQ group, the first time with collagenase and after 2 minutes peritoneal washing with mitomycin C at the different concentrations to be tested was repeated. […] Blood was also collected from all the animals before sacrificing them, the blood was processed within the hour following its extraction to obtain plasma and to analyze, on one hand, the existence of the mutated KRAS oncogene (mutation in codon 12 of exon 1 expressed by DHD cells), and on the other hand the existence of collagenase traces or residues in blood after the peritoneal washes. A digital PCR was used for the KRAS oncogene localization study. For the collagenase trace study, the anonymized samples were sent to Lyposmol laboratories for the performance of specific anti-MMP-1 and anti-MMP-2 ELISAS.
To analyze the presence of mutated KRAS in the blood of the different groups by means of digital PCR, DNA was extracted from at least 2 ml of plasma/group by means of the QlAamp Circulating Nucleic Acid kit according to the manufacturer's data and the results were those listed in Table 4.

[1] = system: abdominal organs and peritoneum; assay: Survival and necropsy of healthy rats after peritoneal washing (groups A, B)
From the text: During this phase, a series of survival experiments were established with various work groups and subgroups to learn about the co-adjuvant or enhancing role of collagenase in the treatment of peritoneal tumors with chemotherapeutic agents such as mitomycin C:
Each group initially consisted of 6 rats (2×3). In the initial design, 3 animals were sacrificed after 15 days and the rest were left until the conditions of the animals required them to be sacrificed (subcutaneous tumor growth >0.5 cm in diameter) or a maximum of 2 months.

[2] = system: peritoneal carcinomatosis (DHD cells); assay: Survival and necropsy of rats with carcinomatosis after peritoneal washing (groups D, E, F); type: in vivo, rat; conditions: for Observations (necropsy): group E, Mito 5 mg; for outcome of group E: mitomycin 5 mg/animal, large amount of analgesia
Protocol: as §1
Each group initially consisted of 6 rats (2×3).

CO[C@@]12[C@H](COC(N)=O)C3=C(C(=O)C(C)=C(N)C3=O)N1C[C@@H]1N[C@@H]12 [Mitomycin C, mitomycin C]
mutated KRAS in the plasma, assessment (mutated KRAS oncogene; group E (DHD + mitomycin C 5 mg/animal), only such group among the treatments): positive mutated KRAS in the plasma | Mutated KRAS event no. (mutated KRAS oncogene; group B (healthy rats, mitomycin)): 0 | Mutated KRAS event no. (mutated KRAS oncogene; group E (DHD + Mito 5 mg/animal)): 524 | necropsies of group B1 ([1]; 5 mg of mitomycin): many irritated and bloody adhesions, and thin organ walls and vessels | clinical condition ([1]; group B, high dose 5 mg/animal): always lethargic and exhibit very little activity | survival time ([1]; group B, high dose 5 mg/animal, despite continuous analgesia): ≤ 2 weeks | Observations (necropsy) ([1]; group B-1, healthy rats, 5 mg, 1 week, 2 animals, listed as Mito): Significant weight loss. Viscera affected | Observations (necropsy) ([1]; group B-1, healthy rats, 5 mg, 1 week, 2 animals, listed as mitomycin): all the abdominal organs are in a relaxed and retracted state (with kidneys that appear necrotic and liver that appears collapsed), the omentum can be ruptured upon contact, and the large intestine obstructed | Observations (necropsy) ([1]; group B-1, healthy rats, 5 mg, 5 days, 1 animal): intestinal puncture | Observations (necropsy) ([1]; group B-2, healthy rats, 0.1 mg, 1 week, 1 animal): Organs with thinning and bloody walls; also recorded: Many adhesions | Observations (necropsy) ([1]; group B-2, healthy rats, 0.1 mg, 2 months, 2 animals, listed as Mito): Greenish liquid in abdomen, peritonitis; also recorded: high degree of adhesions | Observations (necropsy) ([1]; group B-2, healthy rats, 0.1 mg, 2 months, 2 animals, listed as mitomycin): the intestine and an omentum are hematic | Observations (necropsy) ([1]; group B-2, healthy rats, 0.1 mg, 24 h, 2 animals): Evisceration | Observations (necropsy) ([2]; 1 week, 1 animal): Endpoint criterion | Observations (necropsy) ([2]; 2 weeks, 2 animals): Endpoint criterion | Observations (necropsy) ([2]; 72 h, 3 animals): Endpoint criterion | outcome of group E [2]: all the animals had to be sacrificed due to endpoint criterion | outcome of group E ([2]; listed as mitomycin): Half of the animals were found dead the first night after surgery
